Literature values, collected in patent EP2007386B1, “CAMPTOTHECIN-ANALOG WITH A NOVEL, FLIPPED LACTONE-STABLE, E-RING AND METHODS FOR MAKING AND USING SAME” (BIONUMERIK PHARMACEUTICALS, INC., priority 2006, dated 2007).
“Also recorded” adds a separate entry of the source. Like-named read-outs stand apart in the source and are kept apart here.

Tests used:
[1] = et al
[2] = clinical studies in Japan alone
angiogenesis = conditions: mice cornea model; dose levels of 210 mg/kg
[3] = system: advanced malignant melanoma; conditions: fifteen patients, 90-360 mg/m^2 repeated every 2 weeks
[4] = for Non-Hematologic Toxicity No. of Patients With: Cystitis / Non-Hematologic Toxicity No. of Patients With: Diarrhea: 5-day Course; for Number of Patients with Non-Hematologic Toxicity: Cystitis / Number of Patients with Non-Hematologic Toxicity: Diarrhea: Single-Dose Method
[5] = not given; remark: listed apart in the source
[6] = Rothenberg, 90mg QWx 4 Q42 days, 32 pts, 180mg/m^2/wk (50-180)
[7] = 5-Day Course (27 Patients Total), 4 wks
[8] = 5-Day Course (27 Patients Total), 8 wks
[9] = 5-Day Course (27 Patients Total), 12 wks
[10] = Single-Dose Method (34 Patients Total), 3 wks
[11] = Single-Dose Method (34 Patients Total), 6 wks
[12] = Single-Dose Method (34 Patients Total), 9 wks
[13] = Single-Dose Method (34 Patients Total), 12 wks
[14] = 15 mg/m^2x5, 9 patients treated
[15] = 17 mg/m^2x5, 5 patients treated
[16] = 20 mg/m^2x5, 10 patients treated

CCc1c2c(nc3ccc(OC(=O)N4CCC(N5CCCCC5)CC4)cc13)-c1cc3c(c(=O)n1C2)COC(=O)[C@]3(O)CC [CPT-11, 7-ethyl-10-[4-(1-piperidino)-1-piperidino]carbonyloxycamptothecin]
Tumor Type (responses) ([1]; Clavel, 90 min. QDx 3 Q21 Days, 37 pts, 115mg/m^2/d (33-115)): Breast (1 PR); also recorded: Mesothelioma | Toxicity ([1]; Clavel, 90 min. QDx 3 Q21 Days, 37 pts, 115mg/m^2/d (33-115), * = Dose Limiting Toxicity): Neutropenia*; also recorded: diarrhea,; also recorded: vomiting, | Tumor Type (responses) ([1]; Culine, 90 min. Q21 days, 59 pts, 150mg/m^2/wk (50-150)): Esophagus; also recorded: (1 PR) cervix; also recorded: (1 PR) renal; also recorded: (1 PR) Ovarian | Toxicity ([1]; Culine, 90 min. Q21 days, 59 pts, 150mg/m^2/wk (50-150), * = Dose Limiting Toxicity): Fatigue; also recorded: Stomatitis; also recorded: Neutropenia*; also recorded: diarrhea*; also recorded: vomiting,; also recorded: Alopecia | Tumor Type (responses) ([1]; Negoro, 30 min Infusion Weekly, 17 pts, 100mg/m^2 (50-150)): NS CLC (2 PRs) | Toxicity ([1]; Negoro, 30 min Infusion Weekly, 17 pts, 100mg/m^2 (50-150), * = Dose Limiting Toxicity): neutropenia* and diarrhea* and N/V and alopecia, and Liver | Tumor Type (responses) ([1]; Ohe, 120 hr CI Q3wks, 36 pts, 40mg/m^2/d (5-40)): None | Toxicity ([1]; Ohe, 120 hr CI Q3wks, 36 pts, 40mg/m^2/d (5-40), * = Dose Limiting Toxicity): diarrhea*; also recorded: thrombocytopenia; also recorded: Anemia | Toxicity [1, 6]: neutropenia,; also recorded: vomiting,; also recorded: Alopecia | Tumor Type (responses) [1, 6]: Colon Ca | Tumor Type (responses) ([1]; Rowinsky, 90 min Infusion Q21 day, 32 pts, 240mg/m^2 (100-345)): Colon Cancer (1 PR); also recorded: Cervix Ca | Toxicity ([1]; Rowinsky, 90 min Infusion Q21 day, 32 pts, 240mg/m^2 (100-345), * = Dose Limiting Toxicity): Neutropenia*; also recorded: vomiting,; also recorded: diarrhea; also recorded: pain, flushing | patient deaths directly attributable to drug toxicity [2]: approximately 100 | effect on neovascularization (angiogenesis): significant reduction of neovascularization

CC[C@@]1(O)C(=O)OCc2c1cc1n(c2=O)Cc2cc3ccccc3nc2-1 [CPT, (S)-4-Ethyl-4-hydroxy-1 H-pyrano[3',4':6,7]indolizino[1,2-b]quinoline-3,14(4H,12H)-dione]
mean urine recovery of CPT (excluding the five patients with impaired excretion): 22.8% | mean urine recovery of CPT (over the first 48 hours, IV camptothecin sodium 0.5 to 10.0 mg/kg): 17.4%

CC[C@@]1(O)C(=O)OCc2c1cc1n(c2=O)Cc2cc3ccccc3nc2-1 [CPT sodium]
patients with less pronounced transient tumor regression [3]: three | patients with myelosuppression [3]: 11 | patients with a 50% or greater decrease in tumor diameter ([3]; rapid IV injection): None | Objective Results: Stable (patients) (gastrointestinal cancer; [7]): 12 | Objective Results: Worse (patients) (gastrointestinal cancer; [7]): 14 | Objective Results: Improved (patients) (gastrointestinal cancer; 5-Day Course (27 Patients Total), 4 wks after start of therapy): 1 | Objective Results: Stable (patients) (gastrointestinal cancer; [8]): 7 | Objective Results: Worse (patients) (gastrointestinal cancer; [8]): 20 | Objective Results: Stable (patients) (gastrointestinal cancer; [9]): 6 | Objective Results: Worse (patients) (gastrointestinal cancer; [9]): 21 | Objective Results: Stable (patients) (gastrointestinal cancer; [10]): 17 | Objective Results: Worse (patients) (gastrointestinal cancer; [10]): 13 | Objective Results: Improved (patients) (gastrointestinal cancer; Single-Dose Method (34 Patients Total), 3 wks after start of therapy): 4 | Objective Results: Improved (patients) (gastrointestinal cancer; [11]): 2 | Objective Results: Stable (patients) (gastrointestinal cancer; [11]): 11 | Objective Results: Worse (patients) (gastrointestinal cancer; [11]): 21 | Objective Results: Improved (patients) (gastrointestinal cancer; [12]): 2 | Objective Results: Stable (patients) (gastrointestinal cancer; [12]): 8 | Objective Results: Worse (patients) (gastrointestinal cancer; [12]): 24 | Objective Results: Stable (patients) (gastrointestinal cancer; [13]): 6 | Objective Results: Worse (patients) (gastrointestinal cancer; [13]): 28 | patients with evidence of partial objective improvement (gastrointestinal cancer; after 2 months (8 or 9 weeks), of 61 patients): two | patients who showed improvement (gastrointestinal cancer; at 3 months, of 61 patients): none | Cystitis, 5-Day Course (% of 27 Patients) ([4]; 5-Day Course, 27 patients, P<0.05): 48 (P<0.05) % | Non-Hematologic Toxicity No. of Patients With: Cystitis ([4]; 11 mg/m^2x5, 2 patients treated): 1 | Non-Hematologic Toxicity No. of Patients With: Cystitis [4, 14]: 4 | Non-Hematologic Toxicity No. of Patients With: Diarrhea [4, 14]: 1 | Non-Hematologic Toxicity No. of Patients With: Cystitis [4, 15]: 2 | Non-Hematologic Toxicity No. of Patients With: Diarrhea [4, 15]: 4 | Non-Hematologic Toxicity No. of Patients With: Cystitis [4, 16]: 6 | Non-Hematologic Toxicity No. of Patients With: Diarrhea [4, 16]: 4 | Non-Hematologic Toxicity No. of Patients With: Diarrhea ([4]; 22 mg/m^2x5, 1 patient treated): 1 | Cystitis, Single Dose (% of 34 Patients) ([4]; Single Dose, 34 patients): 24% | Number of Patients with Non-Hematologic Toxicity: Cystitis ([4]; 100 mg/m^2, 6 patients treated): 2 | Number of Patients with Non-Hematologic Toxicity: Cystitis ([4]; 110 mg/m^2, 2 patients treated): 1 | Number of Patients with Non-Hematologic Toxicity: Diarrhea ([4]; 110 mg/m^2, 2 patients treated): 1 | Number of Patients with Non-Hematologic Toxicity: Cystitis ([4]; 120 mg/m^2, 7 patients treated): 2 | Number of Patients with Non-Hematologic Toxicity: Diarrhea ([4]; 120 mg/m^2, 7 patients treated): 4 | Number of Patients with Non-Hematologic Toxicity: Cystitis ([4]; 180 mg/m^2, 9 patients treated): 3 | Number of Patients with Non-Hematologic Toxicity: Diarrhea ([4]; 180 mg/m^2, 9 patients treated): 2 | patients with dose limiting bladder toxicity ([5]; doses of 20 to 30 mg/m^2, fifteen patients, intravenous push): three | additional patients with bladder toxicity ([5]; doses of 30 and 44 mg/m^2): two | clinical benefit ([5]; eight patients with measurable disease, 5-day courses at dose levels associated with toxicity): No clinical benefit
